Test results reported in patent US20050123912A1, “Nucleic-acid associated proteins” (priority 2002, published 2005).

Columns and labels:
[1] = relative to progesterone; cited from earlier work
[2] = system: SEQ ID NO:64 expression in human C3A liver cells; assay: Microarray expression of SEQ ID NO:64 in C3A liver cell cultures treated with steroids; type: cell-based; conditions: early confluent human C3A liver cells, 1 μM, 10 μM, and 100 μM for 1, 3, and 6 hours, compared to untreated cells
Description: Total RNA is isolated from tissue samples using the guanidinium thiocyanate method and poly(A)^+ RNA is purified using the oligo-(dT) cellulose method. Each poly(A)^+ RNA sample is reverse transcribed using MMLV reverse-transcriptase, 0.05 pg/μl oligo-(dT) primer (21mer), 1× first strand buffer, 0.03 units/μl RNase inhibitor, 500 μM dATP, 500 μM dGTP, 500 μM dTTP, 40 μM dCTP, 40 μM dCTP-Cy3 (BDS) or dCTP-Cy5 (Amersham Biosciences). The reverse transcription reaction is performed in a 25 ml volume containing 200 ng poly(A)^+ RNA with GEMBRIGHT kits (Incyte). Specific control poly(A)^+ RNAs are synthesized by in vitro transcription from non-coding yeast genomic DNA. After incubation at 37° C. for 2 hr, each reaction sample (one with Cy3 and another with Cy5 labeling) is treated with 2.5 ml of 0.5M sodium hydroxide and incubated for 20 minutes at 85° C. to the stop the reaction and degrade the RNA. Samples are purified using two successive CHROMA SPIN 30 gel filtration spin columns (Clontech, Palo Alto Calif.) and after combining, both reaction samples are ethanol precipitated using 1 ml of glycogen (1 mg/ml), 60 ml sodium acetate, and 300 ml of 100% ethanol. The sample is then dried to completion using a SpeedVAC (Savant Instruments Inc., Holbrook N.Y.) and resuspended in 14 μl 5×SSC/0.2% SDS.
Sequences of the present invention are used to generate array elements. Each array element is amplified from bacterial cells containing vectors with cloned cDNA inserts. PCR amplification uses primers complementary to the vector sequences flanking the cDNA insert. Array elements are amplified in thirty cycles of PCR from an initial quantity of 1-2 ng to a final quantity greater than 5 μg. Amplified array elements are then purified using [sequence]-400 (Amersham Biosciences). […]
Reporter-labeled hybridization complexes are detected with a microscope equipped with an Innova 70 mixed gas 10 W laser (Coherent, Inc., Santa Clara Calif.) capable of generating spectral lines at 488 nm for excitation of Cy3 and at 632 nm for excitation of Cy5. […]

[3] = intranasal; relative to hydrocortisone; cited from earlier work
[4] = system: SEQ ID NO:61 expression in human peripheral blood mononuclear cells (PBMCs); assay: Microarray expression of SEQ ID NO:61 in PBMCs treated with acetaminophen; type: cell-based; conditions: human PBMCs treated with acetaminophen compared to untreated cells
Description: Therefore, SEQ ID NO:61 is useful in disease staging and in diagnostic assays for immune disorders.

6α-methyl-17-hydroxyprogesterone [medroxyprogesterone]
pharmacological activity greater than progesterone [1]: about 15 times | expression of SEQ ID NO:64 [2]: decreased expression

C[C@H]1C[C@H]2[C@@H]3CCC4=CC(=O)C=C[C@]4(C)[C@@]3(Cl)[C@@H](O)C[C@]2(C)[C@@]1(O)C(=O)CO [beclomethasone]
expression of SEQ ID NO:64 [2]: decreased expression | anti-inflammatory and vasoconstrictive effects greater than those produced by hydrocortisone [3]: 5000 times

C[C@]12C=CC(=O)C=C1CC[C@@H]1[C@@H]2C(=O)C[C@@]2(C)[C@H]1CC[C@]2(O)C(=O)CO [prednisone]
expression of SEQ ID NO:64 [2]: decreased expression

CC(=O)Nc1ccc(O)cc1 [acetaminophen]
decrease in expression of SEQ ID NO:61 [4]: two-fold
